Converted amounts (≈) assume the structure as drawn. Where two headings read alike, the source gives them in different places.
Assays:
[1] = tested on: VSV (vesicular stomatitis virus); type: cell-based; conditions: VSV in BHK cells
Balb/c lymphocytes = test: Lymphocyte Viability (LCV) assay, MTT; type: cell-based, mice; conditions: Mus musculus, 96 hours, 50% viability
Protocol: (§1) Murine lymphocytes were derived by splenectomy, under sterile conditions, from Balb/c and C57B1/6 mice sacrificed by cervical dislocation. Spleens were homogenized in 15 mM RPMI medium […], 87%; fetal calf serum, 10%; L-glutamine (200 mM), 2% and supplemented with 1% antibiotic-antimycotic solution (GIBCO) and 25 µg/ml gentamycin. Red blood cells were lysed by brief exposure to sterile, distilled water and subsequently reconstituted to normal tonicity with PBS (10x). The final cell preparation was enumerated, and the viability evaluated, by means of a hemacytometer using the trypan blue exclusion method.
The LCV is an in vitro cytotoxicity assay for murine lymphocytes designed by the investigator. […] The percent viable cells is determined by the MTT-thiazolyl blue method after a similar incubation in the MLR of lymphocytes with the test sample. […] If there is no significant reduction in cell viability, as determined by this detection method, then damaged cells are probably not present for low data values generated in the MLR. Colorimetric data from the LeV is calculated as a percentage of viability, relative to control, using the following formula: (Experimental value - (Nonspecific Color))/(Positive Control - (Media))x 100 [formula] […]

murine lymphocytes = test: Mixed Lymphocyte Reaction (MLR) assay; type: cell-based, mice; conditions: Mus musculus, two-way MLR, Balb/c and C57B1/6 lymphocytes, 96 hours, 3H-thymidine
Protocol: as §1
The MLR is an in vitro test of cellular immunity in which murine lymphocytes from genetically dissimilar animals are cocultured to mutually induce cell proliferation (i.e. two-way MLR method). […] Data from the MLR is generated as dpm of radioactivity which is then expressed as a percentage of cellular activity, relative to control, using the following reduced formula: (Experimental value - (Balb/c - C57B1/6 - Media))/(Positive Control - (Balb/c - C57B1/6 - Media))x 100 [formula] […]
Reconstituted compound at each of several concentrations was added in duplicate (10µl) into wells of a 96-well microtiter plate and evaporated to dryness at room temperature. […] The radioactivity from DNA-bound 3H thymidine was counted using a dry INOTECH counter. Results were calculated as described above.

BHK cells = test: Cytotoxicity assay, BHK cell growth (cell counting); type: cell-based, hamster; conditions: Mesocricetus auratus, 72 h, three days of incubation, read-out: IC50 ng/ml approx.
Protocol: (§2) Pateamine was diluted in MeOH/CH₂Cl₂ 1:1 at 100 ng/ml and it has been tested at different concentrations. The solvent was allowed to evaporate before the cells were seeded.
It has been done two kinds of cytotoxicity assays, one of them employing the same screening protocols and another one with the MTT method. In both cases the cells were: CV-1 (monkey kidney fribroblast) BHK (hamster kidney fibroblast)
BHK cells were seeded into 16 mm wells at 2 x 10⁴ per well. The day after the inoculum was replaced by 1 ml aliquots of MEM 10FCS containing the indicated concentration of drug. All determinations were carried out in duplicate. After three days of incubation cells were counted and the IC₅₀ was determined.

P-388 cells = test: Antitumoral assay, P-388 cell growth (cell counting); type: cell-based, mouse; conditions: for IC50: Mus musculus
Protocol: as §2
Four general anitumoural assays, employing the current screening protocols have been carried out using the following cells: P-388 (lymphoid neoplasm from DBA/2 mouse) A-549 (human lung carcinoma) HT-29 (human colon carcinoma) KB (human oral epidermoid carcinoma)
P-388 cells were seeded into 16 mm wells at 1 x 10⁴ per well in […] aliquots of MEM 10FCS containing the indicated concentration or drug. All determinations were carried out in duplicate. After three days of incubation cells were counted and the IC₅₀ was determined.

In the case of CC(/C=C/C(C)=C/C1Cc2nc(cs2)C(C)CC(N)CC(=O)OC(C)C/C(C)=C/C=C\C(=O)O1)=C\CN(C)C (centres unmarked) [PATEAMINE, pateamine], the IC50 ng/disk [1] is reported as over 10 ng/disk, the “% Inhibition BHK/VSV (sign for plaque reduction)” value ([1]; 10ng) is reported as 14 - (The sign (-), indicates no inhibition of virus replication.) and the IC50 (Balb/c lymphocytes) is reported as 4100 ng/mL (≈ 7380 nM). The IC50 (murine lymphocytes) was under 1.5 ng/mL, the IC50 (BHK cells) was about 3 ng/mL (≈ 5.4 nM) and the “% Inhibition P-388 cell growth” value (P-388 cells; 0.1ng, three days of incubation) was 11%. The “% Inhibition P-388 cell growth” value (P-388 cells; 1ng, three days of incubation) was 100%, the “% Inhibition P-388 cell growth” value (P-388 cells; 5ng, three days of incubation) was 100% and the “% Inhibition P-388 cell growth” value (P-388 cells; 10ng, three days of incubation) was 100%. The IC50 (P-388 cells; P388, 72 h, P-388, three days of incubation, read-out: IC50 ng/ml approx.) was about 0.3 ng/mL (≈ 0.54 nM) and the IC50 (P-388 cells; P388, read-out: IC50) was 0.15 ng/mL (≈ 0.27 nM).

From patent EP0490598A1 (priority 1990, dated 1992)
